Experiments:
MGC-803 = assay: Anticancer activity against human MGC-803 cells assessed as inhibition of cell growth incubated for 48 hrs by crystal violet staining based analysis; type: functional; details: MGC-803, 48 h
T-24 = assay: Anticancer activity against human T24 cells assessed as inhibition of cell growth incubated for 48 hrs by crystal violet staining based analysis; type: functional; details: T-24, 48 h
MCF7 = assay: Anticancer activity against human MCF7 cells assessed as inhibition of cell growth incubated for 48 hrs by crystal violet staining based analysis; type: functional; details: MCF7, 48 h
[1] = biological target: Serine/threonine-protein kinase PLK1 (Homo sapiens, UniProt P53350); assay: Binding affinity to recombinant PLK1 (unknown origin) assessed as dissociation constant by SPR analysis
Serine/threonine-protein kinase PLK1, sequence (P53350 whole entry): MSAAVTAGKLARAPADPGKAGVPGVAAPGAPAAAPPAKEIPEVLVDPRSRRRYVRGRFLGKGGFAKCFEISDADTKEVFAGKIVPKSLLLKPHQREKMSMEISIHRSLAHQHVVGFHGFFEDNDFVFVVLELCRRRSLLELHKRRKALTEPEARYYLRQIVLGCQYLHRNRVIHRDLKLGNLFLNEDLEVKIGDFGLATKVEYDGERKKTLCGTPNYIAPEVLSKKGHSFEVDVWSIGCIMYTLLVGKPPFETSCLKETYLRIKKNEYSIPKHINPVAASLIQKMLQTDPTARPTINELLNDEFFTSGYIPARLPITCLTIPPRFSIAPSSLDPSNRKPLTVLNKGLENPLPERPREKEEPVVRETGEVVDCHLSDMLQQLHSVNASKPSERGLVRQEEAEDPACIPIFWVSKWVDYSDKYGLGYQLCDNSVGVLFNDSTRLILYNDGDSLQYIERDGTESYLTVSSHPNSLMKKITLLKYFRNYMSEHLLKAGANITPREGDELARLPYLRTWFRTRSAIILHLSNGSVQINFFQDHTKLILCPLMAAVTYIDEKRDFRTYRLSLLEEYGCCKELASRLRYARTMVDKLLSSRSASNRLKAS

SK-OV-3 = assay: Anticancer activity against human SK-OV-3 cells assessed as inhibition of cell growth incubated for 48 hrs by crystal violet staining based analysis; type: functional; details: SK-OV-3, 48 h
NCI-H460 = assay: Anticancer activity against human NCI-H460 cells assessed as inhibition of cell growth incubated for 48 hrs by crystal violet staining based analysis; type: functional; details: NCI-H460, 48 h
A549/CDDP = assay: Anticancer activity against human A549/DDP cells assessed as inhibition of cell growth incubated for 48 hrs by crystal violet staining based analysis; type: functional
[2] = Octanol-water partition coefficient, logP of the compound; type: physicochemical

Row | IC50 (MGC-803) [µM] | IC50 (MCF7) [µM] | Kd [1] [µM] | IC50 (SK-OV-3) [µM] | IC50 (NCI-H460) [µM] | IC50 (A549/CDDP) [µM] | logP [2] | Compound | IC50 (T-24) [µM]
1 | 3.41 | 3.29 | 2.15 | 4.5 | 2.8 | – | – | O=C1c2cccc3c(S(=O)(=O)NCc4ccc(F)cc4)ccc(c23)C(=O)N1CCN1CCCC1 | 2.51
2 | 4.04 | 10.3 | 16.8 | 5.19 | 5.37 | – | – | COc1ccc(CNS(=O)(=O)c2ccc3c4c(cccc24)C(=O)N(CCN2CCCC2)C3=O)cc1 | 8.6
3 | 7.29 | 4.55 | 20.9 | 10.7 | 4.8 | – | – | Cc1ccc(CNS(=O)(=O)c2ccc3c4c(cccc24)C(=O)N(CCN2CCCCC2)C3=O)cc1 | 9.09
4 | 4.17 | 6.75 | 17.3 | 3.98 | 8.25 | – | – | Cc1ccc(CNS(=O)(=O)c2ccc3c4c(cccc24)C(=O)N(CCN2CCCC2)C3=O)cc1 | 5.53
5 | 5.43 | 9.62 | 3.95 | 8.53 | 4.28 | – | – | O=C1c2cccc3c(S(=O)(=O)NCc4ccc(F)cc4)ccc(c23)C(=O)N1CCN1CCCCC1 | 1.76
6 | 8.1 | 18.2 | 20.1 | 20.5 | 5 | – | – | COc1ccc(CNS(=O)(=O)c2ccc3c4c(cccc24)C(=O)N(CCN2CCCCC2)C3=O)cc1 | 4.51
7 | 3.38 | 5.01 | 7.36 | 4.22 | 4.77 | – | – | O=C1c2cccc3c(S(=O)(=O)NCc4ccc(C(F)(F)F)cc4)ccc(c23)C(=O)N1CCN1CCCC1 | 4.99

More lines, now with the values behind:

Row | Compound | IC50 (MGC-803) [µM] | IC50 (MCF7) [µM] | Kd [1] [µM] | IC50 (SK-OV-3) [µM] | IC50 (NCI-H460) [µM] | IC50 (A549/CDDP) [µM] | logP [2] | IC50 (T-24) [µM]
8 | COc1ccc(CNS(=O)(=O)c2ccc3c4c(cccc24)C(=O)N(CCN(C)C)C3=O)cc1 | 6.44 | 10.2 | 8.06 | 4.99 | 9.37 | – | – | 5.31
9 | O=C1c2cccc3c(S(=O)(=O)NCc4ccccc4)ccc(c23)C(=O)N1CCN1CCCCC1 | 5.16 | 15.4 | 2.03 | 12 | 8.17 | – | – | 2.75
10 | CN(C)CCN1C(=O)c2cccc3c(S(=O)(=O)NCc4ccccc4)ccc(c23)C1=O | 3.71 | 14.7 | 16.8 | 1.8 | 11.5 | – | – | 7.11
11 | CN(C)CCN1C(=O)c2cccc3c(S(=O)(=O)NCc4ccccc4F)ccc(c23)C1=O | 5.46 | 5.38 | 2.79 | 2.95 | 10.8 | – | – | 3.86
12 | CN(C)CCN1C(=O)c2cccc3c(S(=O)(=O)NCc4cccc(F)c4)ccc(c23)C1=O | 4.98 | 7.29 | 17.5 | 3.11 | 9.77 | – | – | 2.97
13 | O=C1c2cccc3c(S(=O)(=O)NCc4ccc(C(F)(F)F)cc4)ccc(c23)C(=O)N1CCN1CCCCC1 | 5.56 | 16.9 | 4.24 | 9.21 | 4.29 | – | – | 8.19
14 | CC[C@@H]1C(=O)N(C)c2cnc(Nc3ccc(C(=O)N[C@H]4CC[C@H](N5CCN(CC6CC6)CC5)CC4)cc3OC)nc2N1C(C)C [VOLASERTIB] | – | – | 0.9 | – | – | – | – | –
15 | O=C1c2cccc3c(Sc4ccc([N+](=O)[O-])cc4)ccc(c23)C(=O)N1CCN1CCCC1 | 11.2 | 10.8 | 15.4 | 12.2 | 15.6 | > 20 | 4.26 | 9.23
16 | CN(C)CCN1C(=O)c2cccc3c(S(=O)(=O)NCc4ccc(C(F)(F)F)cc4)ccc(c23)C1=O | 5.95 | 6.24 | 5.26 | 7.42 | 8.28 | – | – | 2.57
17 | Cc1ccc(CNS(=O)(=O)c2ccc3c4c(cccc24)C(=O)N(CCN(C)C)C3=O)cc1 | 7.4 | 10.5 | 14.2 | 6.64 | 12.5 | – | – | 5.89
18 | O=C1c2cccc3c(S(=O)(=O)NCc4ccccc4)ccc(c23)C(=O)N1CCN1CCCC1 | 4.96 | 10.3 | 19.2 | 7.05 | 17.6 | – | – | 4.07
